Reference: PMC9860728, “Identification of New N-methyl-piperazine Chalcones as Dual MAO-B/AChE Inhibitors” (Pharmaceuticals, 2023)

Tests used:
MAO-A = molecular target: T1, MAO-A (Homo sapiens, UniProt P21397); assay: MAO-A enzyme inhibition assay (kynuramine substrate); format: biochemical; conditions: mean ± SD; for remaining activity at 10 µM: read-out: Residual Activities at 10 μM (%) MAO-A
T1 construct: purchased Sigma Aldrich
T1 sequence (P21397 1-527): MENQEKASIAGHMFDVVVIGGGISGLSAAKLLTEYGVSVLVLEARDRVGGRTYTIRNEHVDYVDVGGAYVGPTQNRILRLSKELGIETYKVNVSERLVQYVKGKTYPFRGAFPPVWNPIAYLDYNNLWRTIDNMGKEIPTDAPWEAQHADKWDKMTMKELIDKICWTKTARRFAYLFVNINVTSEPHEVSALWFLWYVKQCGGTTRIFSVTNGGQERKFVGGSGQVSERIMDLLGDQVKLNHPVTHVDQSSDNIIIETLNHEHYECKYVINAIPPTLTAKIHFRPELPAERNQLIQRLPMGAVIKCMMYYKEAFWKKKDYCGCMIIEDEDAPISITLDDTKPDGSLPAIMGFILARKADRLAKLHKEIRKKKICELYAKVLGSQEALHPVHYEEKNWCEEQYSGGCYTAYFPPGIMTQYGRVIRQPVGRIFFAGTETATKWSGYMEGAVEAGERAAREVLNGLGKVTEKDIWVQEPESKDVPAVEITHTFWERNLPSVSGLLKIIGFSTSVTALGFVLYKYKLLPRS
Method: (§1) MAO assays were performed as described previously, i.e., ~0.09 U/mL of MAO-A and MAO-B were reacted with 0.06 mM kynuramine and 0.3 mM benzylamine, respectively, in 50 mM sodium phosphate (pH 7.2). […] For inhibition assay, the compounds were dissolved in DMSO and added into the reaction mixture. The final concentration of DMSO in the reaction mixture was less than 1% to avoid solvent disturbance.

MAO-B = molecular target: T2, MAO-B (Homo sapiens, UniProt P27338); assay: MAO-B enzyme inhibition assay (benzylamine substrate); format: biochemical; conditions: for remaining activity at 10 µM: read-out: Residual Activities at 10 μM (%) MAO-B; for SI (MAO): MAO-B selectivity over MAO-A, based on IC50 values
T2 construct: purchased Sigma Aldrich
T2 sequence (P27338 1-520): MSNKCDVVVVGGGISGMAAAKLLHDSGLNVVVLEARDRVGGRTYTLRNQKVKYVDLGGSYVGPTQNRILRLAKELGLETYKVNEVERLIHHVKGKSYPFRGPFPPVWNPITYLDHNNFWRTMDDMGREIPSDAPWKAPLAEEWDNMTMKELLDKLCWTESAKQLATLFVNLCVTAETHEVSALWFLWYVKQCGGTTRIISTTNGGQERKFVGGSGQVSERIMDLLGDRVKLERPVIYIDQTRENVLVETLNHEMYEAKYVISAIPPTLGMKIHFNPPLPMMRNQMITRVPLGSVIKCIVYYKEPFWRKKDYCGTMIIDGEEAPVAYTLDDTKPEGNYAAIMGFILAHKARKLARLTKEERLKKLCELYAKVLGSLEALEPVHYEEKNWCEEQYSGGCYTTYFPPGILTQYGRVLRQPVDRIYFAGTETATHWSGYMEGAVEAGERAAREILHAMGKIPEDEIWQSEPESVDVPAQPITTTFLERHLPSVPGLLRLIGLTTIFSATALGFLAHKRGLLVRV
Method: as §1

AChE = AChE (Electrophorus electricus, UniProt O42275); assay: AChE inhibition assay (Ellman method, ATCI); format: biochemical; conditions: for remaining activity at 10 µM: 10 μM compound, mean ± SD, read-out: Residual Activities at 10 μM (%) AChE; for SI (ChE): AChE selectivity over BChE, based on IC50 values
AChE, sequence (O42275 24-633): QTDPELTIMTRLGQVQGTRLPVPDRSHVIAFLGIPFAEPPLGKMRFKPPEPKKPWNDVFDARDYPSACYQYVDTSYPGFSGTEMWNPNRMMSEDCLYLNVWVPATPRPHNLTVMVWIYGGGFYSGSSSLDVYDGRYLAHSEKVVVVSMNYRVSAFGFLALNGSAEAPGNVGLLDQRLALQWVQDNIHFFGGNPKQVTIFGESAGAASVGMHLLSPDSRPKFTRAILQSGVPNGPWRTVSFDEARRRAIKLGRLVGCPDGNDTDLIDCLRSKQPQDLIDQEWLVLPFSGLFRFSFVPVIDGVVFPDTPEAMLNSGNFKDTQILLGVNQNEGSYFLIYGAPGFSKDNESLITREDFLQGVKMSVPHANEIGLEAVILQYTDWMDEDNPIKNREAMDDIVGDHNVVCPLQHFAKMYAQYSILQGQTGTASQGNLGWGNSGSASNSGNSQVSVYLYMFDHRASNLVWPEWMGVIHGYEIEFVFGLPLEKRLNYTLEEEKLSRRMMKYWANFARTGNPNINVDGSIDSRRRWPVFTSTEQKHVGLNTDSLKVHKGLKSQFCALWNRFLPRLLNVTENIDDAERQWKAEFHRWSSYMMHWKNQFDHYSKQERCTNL
Method: (§2) For measuring cholinesterase (ChE) activity, the Ellman method was employed with a slight modification. The AChE and BchE with ~0.02 U/mL were reacted with 0.5 mM ATCI and BTCI, respectively, followed by addition of 0.5 mM DTNB. […] In the inhibition assay, the enzyme and the compound were preincubated in reaction buffer for 15 min, followed by adding substrates and DTNB.

BChE = BChE (Equus caballus, UniProt P81908); assay: biochemical; conditions: read-out: Residual Activities at 10 μM (%) BChE
BChE, sequence (P81908 whole entry): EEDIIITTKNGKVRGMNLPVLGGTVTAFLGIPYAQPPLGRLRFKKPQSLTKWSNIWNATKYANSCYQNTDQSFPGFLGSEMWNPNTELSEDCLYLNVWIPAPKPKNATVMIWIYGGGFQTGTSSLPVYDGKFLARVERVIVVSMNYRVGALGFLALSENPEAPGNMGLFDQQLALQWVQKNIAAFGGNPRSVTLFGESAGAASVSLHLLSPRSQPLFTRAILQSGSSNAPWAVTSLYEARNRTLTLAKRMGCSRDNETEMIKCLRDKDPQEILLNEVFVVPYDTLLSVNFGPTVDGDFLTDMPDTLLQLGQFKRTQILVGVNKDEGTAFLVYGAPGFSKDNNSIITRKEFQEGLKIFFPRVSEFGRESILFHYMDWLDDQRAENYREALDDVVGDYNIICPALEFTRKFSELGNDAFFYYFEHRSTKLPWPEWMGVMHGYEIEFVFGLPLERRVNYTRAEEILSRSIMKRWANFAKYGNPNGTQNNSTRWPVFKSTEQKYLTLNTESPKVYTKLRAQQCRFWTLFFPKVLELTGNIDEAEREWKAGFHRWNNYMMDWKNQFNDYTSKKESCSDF
Method: as §2

SMILES | remaining activity at 10 µM (MAO-A; 10 μM compound) [%] | IC50 (MAO-A) [µM] | remaining activity at 10 µM (MAO-B; 10 μM compound, mean ± SD) [%] | SI (MAO) (MAO-B) | IC50 (MAO-B; mean ± SD) [µM] | remaining activity at 10 µM (AChE) [%] | SI (ChE) (AChE) | remaining activity at 10 µM (BChE) [%] | Residual Activities at 10 μM (%) MAO-B (MAO-B; 10 μM compound, mean ± SD) [%] | Residual Activities at 10 μM (%) MAO-A (MAO-A; 10 μM compound) [%]
CSc1ccc(/C=C/C(=O)c2ccc(N3CCN(C)CC3)cc2)cc1 [Compound 2g, (E)-1-(4-(4-methylpiperazin-1-yl)phenyl)-3-(4-(methylthio)phenyl)prop-2-en-1-one] | 97.2 ± 1.99 | > 40 | 40 ± 1.67 | 5.93 | 6.74 ± 0.03 | 50.4 ± 4.43 | >3.22 | 74.7 ± 4.48 |  | 
CN1CCN(c2ccc(C(=O)/C=C/c3ccc(Cl)c(C(F)(F)F)c3)cc2)CC1 [Compound 2l, (E)-3-(4-chloro-3-(trifluoromethyl)phenyl)-1-(4-(4-methylpiperazin-1-yl)phenyl)prop-2-en-1-one] | 85.9 ± 1.66 | > 40 |  | 28.37 | 1.41 ± 0.04 | 68.5 ± 1.32 | 1.85 | 73 ± 1.75 | 0.00 ± 1.79 | 
CN1CCN(c2ccc(C(=O)/C=C/c3cc(C(F)(F)F)ccc3Cl)cc2)CC1 [Compound 2o, (E)-3-(2-chloro-5-(trifluoromethyl)phenyl)-1-(4-(4-methylpiperazin-1-yl)phenyl)prop-2-en-1-one] | 92.5 ± 4.23 | > 40 | 22.9 ± 2.26 | 12.50 | 3.2 ± 0.32 | 37.6 | 0.31 | 6.46 ± 3.05 |  | 
CN1CCN(c2ccc(C(=O)/C=C/c3ccc(C(F)(F)F)cc3)cc2)CC1 [Compound 2b, (E)-1-(4-(4-methylpiperazin-1-yl)phenyl)-3-(4-(trifluoromethyl)phenyl)prop-2-en-1-one] |  | > 40 | 21 ± 4.02 | 12.90 | 3.1 ± 0.04 | 19 ± 0.55 | 5.92 | 58.5 ± 1.38 |  | 88.19 ± 6.87
COc1ccc(/C=C/C(=O)c2ccc(N3CCN(C)CC3)cc2)c(C(F)(F)F)c1 [Compound 2p, (E)-3-(4-methoxy-2-(trifluoromethyl)phenyl)-1-(4-(4-methylpiperazin-1-yl)phenyl)prop-2-en-1-one] | 44.5 ± 3.31 | 6.67 ± 0.63 | 15 ± 3.93 | 3.06 | 2.18 ± 0.01 | 37.8 ± 7.64 | 1.06 | 28.9 ± 4.08 |  | 
CN1CCN(c2ccc(C(=O)/C=C/c3ccc(F)cc3F)cc2)CC1 [Compound 2q, (E)-3-(2,4-difluorophenyl)-1-(4-(4-methylpiperazin-1-yl)phenyl)prop-2-en-1-one] | 72.7 ± 3.31 | 16.5 ± 1.75 | 13.1 ± 2.06 | 5.45 | 3.03 ± 0.13 | 33.78 ± 0.27 | 1.71 | 55.3 ± 0.68 |  | 
CN1CCN(c2ccc(C(=O)/C=C/c3cc(F)cc(C(F)(F)F)c3)cc2)CC1 [Compound 2i, (E)-3-(3-fluoro-5-(trifluoromethyl)phenyl)-1-(4-(4-methylpiperazin-1-yl)phenyl)prop-2-en-1-one] | 114 ± 6.06 | > 40 | 20.4 ± 2.47 | 17.17 | 2.33 ± 0.14 | 51.5 ± 4.92 | 1.82 | 63.7 ± 6.24 |  | 
